Measured values taken from US20110173718A1, “HERBICIDE TOLERANT PLANTS” (SYNGENTA CROP PROTECTION, INC., priority 2008, published 2011).
Where “and” joins values, the source holds several entries; their conditions need not be identical. Equal values may be shown once. Marks after values point to notes of the source that are not given here.

Experiments:
[1] = biological target: T1, Chlamydomonas HST (Chlamydomonas reinhardtii, UniProt A1JHN0); experiment: HST assay (TLC, MFBQ formed), recombinant Chlamydomonas HST in E. coli membranes; assay type: biochemical; conditions: 25 ppm; TLC, estimated amount of MFBQ formed, relative to controls; read-out: Chlamydomonas. HST % I at 25 ppm
T1 construct: GST (N); made in house; host or cells: E. coli (BL21A1 / BL21DE3), membrane fraction
T1 sequence (A1JHN0 51-370): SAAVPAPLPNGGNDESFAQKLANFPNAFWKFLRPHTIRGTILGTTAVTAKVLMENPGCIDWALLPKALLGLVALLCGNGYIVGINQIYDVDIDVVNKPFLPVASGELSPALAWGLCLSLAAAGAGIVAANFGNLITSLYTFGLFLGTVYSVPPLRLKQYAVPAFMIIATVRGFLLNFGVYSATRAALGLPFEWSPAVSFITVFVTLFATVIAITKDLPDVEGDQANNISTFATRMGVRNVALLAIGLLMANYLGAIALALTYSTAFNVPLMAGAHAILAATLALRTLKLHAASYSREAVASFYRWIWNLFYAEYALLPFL
Procedure, shortened: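 Recombinant GST-fused Chlamydomonas HST in E. coli membranes was incubated with 200 μM farnesyl diphosphate and 100 μM 14C-homogentisate in 50 mM Tricine-NaOH pH 8.5, 20 mM MgCl2 for ~20 min at 28 °C, with compounds in DMSO. Oxidised plus reduced MFBQ was quantified by TLC phosphorimaging. Results are percent inhibition versus no-inhibitor control across doses.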

[2] = test system: HST in spinach chloroplast extract; experiment: HST assay (TLC, MFBQ formed), spinach chloroplast extract; assay type: biochemical; conditions: 25 ppm; TLC, estimated amount of MFBQ formed, relative to controls
Procedure: HST enzyme preparations for assay are also prepared directly from fresh plant material. For example HST enzyme preparations are from spinach. In the first step intact spinach chloroplasts are prepared from two lots of 500 g of fresh baby spinach leaves (e.g from the salad section of the local supermarket). Prepacked spinach is usually already washed, but if buying loose leaves these must be rinsed in water before proceeding. Stalks, large leaves and mid-ribs are removed. Each 500 g lot of leaves is added to 1.5 l of ‘Grinding medium’ in a 2 L plastic beaker. Grinding medium is cold (4° C.) 50 mM Tricine/NaOH buffer at pH 7.1 containing 330 mM glucose, 2 mM sodium isoascorbate, 5 mM MgCl2 and 0.1% bovine serum albumen The beaker, kept at 4° C., is placed under a Polytron 6000 blender, fitted with a 1.5″cutting probe and the mixture blended in short bursts of 5-8 sec up to 8-10K rpm until all the leaves are macerated. The homogenate is filtered into a 5 L beaker (embedded in an ice bucket) through four layers of muslin, and two layers of 50μ mesh nylon cloth. The filtrate is transferred to 250 ml buckets of a Beckman GS-6 centrifuge and spun at […] (3020 rpm) for 2 min at 4° C. The supernatant is drained away and discarded to leave a sediment of chloroplasts. Chloroplasts are resuspended in a few ml of cold resuspension medium by gentle swirling and gentle use of a quill brush soaked in resuspension medium. Resuspension medium is 50 mM Hepes/KOH pH 7.8 containing 330 mM sorbitol, 2 mM EDTA, 5 mM KH2PO4, 2 mM MgCl2 and 0.1% bovine serum albumen at 4° C. The chloroplasts are resuspended in 5-10 ml of resuspension buffer, recentrifuged down and resuspended again in order to wash them. The chloroplasts are then once again centrifuged down and then broken by resuspension in about 5 ml of 50 mM Tricine-NaOH pH 7.8 to a protein concentration of about 40 mg/ml. The solution is stored frozen at −80° C. in aliquots. This resuspension is defrosted and used directly in HST activity assays. Alternatively, chloroplasts are prepared resuspended in 50 mM Tris/HCl buffer at pH 7.8 containing 330 mM sorbitol (alternative resuspension buffer) and layered on top of a percol gradient (comprising the same buffer containing 45% percol), spun down, the intact chloroplast fraction taken and washed 2 or 3 times in the alternative resuspension buffer and then spun down again, resuspended in breaking buffer (without sorbitol), flash frozen and stored in aliquots at −80° C.
Prenyltransferase (HST) activities are measured by determining the prenylation rates of [U—^14C]homogentisate using farnesyl diphosphate (FDP) as prenyl donor. ^14C homogentisate is prepared from ^14C tyrosine using L amino acid oxidase and HPPD. For inhibitor testing, compounds are dissolved in dimethylsulfoxide (DMSO). DMSO added at up to 2% v/v has no effect on assays. Control assays contain DMSO at the same concentration as in inhibitor containing assays.
Assays using spinach chloroplast extracts (100 μl final volume) contain up to 2 mg of chloroplast protein, 50 mM Tricine-NaOH pH 8.5, 50 mM MgCl2, 200 μM farnesyl diphosphate (FDP) and 26 μM ^14C-homogentisate (167 dpm/pmol). Assays are run for about an hour at 28° C. […] Lipophilic reactions products are extracted and analyzed essentially as described in the literature.
Using the above assays percentage inhibition of the amount of MFBQ formed at a range of doses of inhibitors relative to the control amount obtained with no inhibitor present is reported (Table 1). The better inhibitors give greater percentage inhibition at lower doses.

[3] = biological target: T2, Arabidopsis HST (Arabidopsis thaliana, UniProt Q1ACB3); experiment: HST total extraction (non TLC) assay, recombinant Arabidopsis HST from insect cells; assay type: biochemical; conditions: 3 point dose curves only conducted at 50 μM HPP
T2 construct: GST (factor Xa cleavage site) (N); made in house; host or cells: Sf9 insect cells (baculovirus, pAcG3X), membrane fraction
T2 sequence (Q1ACB3 70-386): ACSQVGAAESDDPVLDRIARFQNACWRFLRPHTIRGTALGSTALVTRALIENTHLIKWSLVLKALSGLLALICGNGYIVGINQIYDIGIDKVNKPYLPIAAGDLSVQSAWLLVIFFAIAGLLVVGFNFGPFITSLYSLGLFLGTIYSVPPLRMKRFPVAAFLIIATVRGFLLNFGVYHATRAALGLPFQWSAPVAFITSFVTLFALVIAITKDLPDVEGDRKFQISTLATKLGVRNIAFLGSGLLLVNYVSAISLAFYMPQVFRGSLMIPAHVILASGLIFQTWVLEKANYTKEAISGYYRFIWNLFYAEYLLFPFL

[4] = test system: wild-type (WT) Samsun tobacco; experiment: Glasshouse spray test, wild-type tobacco; assay type: in vivo; conditions: for % damage at 7 DAT: WT Samsun, individual plants
Procedure: Rooted transgenic T0 plantlets are transferred from agar and potted into 50% peat, 50% John Innes soil no 3 or, for example, MetroMix® 380 soil (Sun Gro Horticulture, Bellevue, Wash.) with slow-release fertilizer in 3 inch round or 4 inch square pots and left regularly watered to establish for 8-12 d in the glass house. Glass house conditions are about 24-27° C. day; 18-21° C. night and approximately a 14 h (or longer in UK summer) photoperiod. Humidity is ˜65% and light levels up to 2000 μmol/m^2 at bench level. Once new tissue emerges and plants they have reached the 2-4 leaf stage some of the clones from each event are sprayed with test chemicals dissolved in water with 0.2-0.25% X-77 surfactant and sprayed from a boom on a suitable track sprayer moving at 2 mph in a DeVries spray chamber with the nozzle about 2 inches from the plant tops. Spray volume is suitably 25 gallons per acre or, for example, […].
Test chemicals are, for example, compound 2.3 at 500 g/ha. At the same time that transgenic plants are sprayed so too are w/t Samsun tobacco plants grown from seed as well as non-transgenic plants regenerated from tissue culture and non-transgenic tissue culture escapes. Damage is assessed versus unsprayed control plants of like size and development.
6 Seed from w/t Samsun tobacco and 8 T1 seed from events B8 and G9 are also planted out in 3 inch pots, grown on for 7 to 12 d and then, as described in the foregoing examples, the plantlets spray tested for resistance to various chemicals and assessed at 14 DAT. Chemicals are formulated in 0.2% X77 and sprayed at a spray volume of 200 l/ha.
(§1) Seed of wild-type tobacco plants, C2 tobacco plants and of the T1 progeny of a further Arabidopsis-HST expressing tobacco line, D2 were planted out in 3 inch pots, grown on, sprayed with compounds 1.1, 2.30 and 3.6 at the rates shown in table 5. Percent damage scores were assessed at 7 DAT. Aside from the presumptive non-transgenic segregants the D2 line containing the Arabidopis HST expression construct offered the highest level of tolerance to the two HST herbicides with the Psuedomonas HPPD, C2 line, offering only marginal tolerance under the conditions of this test.
(§2) Single copy events amongst the T1 plant lines are identified by their 3:1 segregation ratio (wrt kanamycin and or herbicide) and by quantitative RT-PCR. Seed from the thus selected T1 tobacco (var Samsun) lines are sown in 3 inch diameter pots containing 50% peat, 50% John Innes soil no 3. After growth to the 3 leaf stage, plants are sprayed, as described above, in order to test for herbicide tolerance relative to like-treated non-transgenic tobacco plants.
(§3) Control tobacco plants and transgenic T1 plants expressing either the Pseudomonas or the wheat HPPD gene are sprayed at 37, 111, 333 and 1000 g/ha rates of HST inhibitors and, for example, compound 2.3.
(§4) Plants are assessed and scored for % damage at 16 DAT.

[5] = test system: Arabidopsis HST transgenic tobacco plants; experiment: Glasshouse spray test, Arabidopsis HST transgenic tobacco; assay type: in vivo; conditions: D2 line (Arabidopsis HST, segregating T1), individual plants
[6] = test system: tobacco plants expressing Pseudomonas fluorescens HPPD; experiment: Glasshouse spray test, Pseudomonas HPPD transgenic tobacco; assay type: in vivo; conditions: C2 line (Pseudomonas HPPD, T2), individual plants
Description: Tobacco plants expressing the wild-type HPPD gene of Pseudomonas fluorescens strain 87-79 under operable control of the double enhanced 35S CMV promoter region, Nos3′ terminator and TMV translational enhancer were provided as detailed in Example 4 of WO0246387.
as §1
Transgenic lines of tobacco, soyabean and corn etc. can be engineered to express various heterologous HPPDs derived from, for example Avena (SEQ ID #26), Wheat (SEQ ID #27), Pseudomonas fluorescens (SEQ ID # 25) and Shewanella colwelliana (SEQ ID #28) as, for example, described in WO 02/46387.
as §2, §3, §4

Row | SMILES | inhibition at 25 ppm [1] [%] | Spinach chloroplast extract % I at 25 ppm [2] [%] | Estimated IC50 (ppm) [3] | % damage at 7 DAT ([4]; 150 gai/ha) [%] | percent damage at 6 DAT ([4]; 300 g/ha, WT, reps) [%] | % damage at 7 DAT ([4]; 300 gai/ha) | % damage at 7 DAT ([4]; 450 gai/ha) [%] | % damage at 7 DAT ([5]; 150 gai/ha) | % damage at 7 DAT ([5]; 300 gai/ha) | % damage at 7 DAT ([5]; 450 gai/ha) | % damage at 7 DAT ([6]; 150 gai/ha) [%] | % damage at 7 DAT ([6]; 300 gai/ha) | % damage at 7 DAT ([6]; 450 gai/ha) [%]
1 | Cc1cc(C)c(-c2c(O)c3nccnc3n(CC(F)F)c2=O)c(C)c1 [Compound 2.11] | 80 | 30 | 31* ppm | – | – | – | – | – | – | – | – | – | –
2 | CC(C)C(=O)OC1=C(c2cc(Cl)ccc2C(F)(F)F)S(=O)(=O)N(CC(F)F)c2nccnc21 [Compound 3.6] | – | – | – | 80 | 65 | 80% (2×) and 75% | 85 | 10% (2×) and 70% (2×) and 30% and 20% and 65% and 25% | 65% and 35% and 7% and 85% (2×) and 80% and 75% and 40% | 55% and 25% (2×) and 65% (2×) and 70% and 80% and 75% | 60 | 65% (3×) and 70% | 65
